Source: patent US7375124B2, “Use of α-phenylthiocarboxylic and α-phenyloxycarboxylic acids with serum-glucose-lowering and serum-lipid-lowering activity” (Sigma-Tau Industrie Farmaceutiche Riunite S.p.A., priority 2002, dated 2008)

Columns and labels:
mPPARαLBD/Gal4DBD = biological target: T1, mPPARαLBD/Gal4DBD (Mus musculus, UniProt P23204); assay: Transactivation assay mediated by mPPARαLBD/Gal4DBD in COS-7 cells (CAT reporter); assay type: cell-based
T1 construct: expressed in transfected cells; host or cells: COS-7 (monkey kidney fibroblasts)
T1 sequence (P23204 239-466 limits assumed): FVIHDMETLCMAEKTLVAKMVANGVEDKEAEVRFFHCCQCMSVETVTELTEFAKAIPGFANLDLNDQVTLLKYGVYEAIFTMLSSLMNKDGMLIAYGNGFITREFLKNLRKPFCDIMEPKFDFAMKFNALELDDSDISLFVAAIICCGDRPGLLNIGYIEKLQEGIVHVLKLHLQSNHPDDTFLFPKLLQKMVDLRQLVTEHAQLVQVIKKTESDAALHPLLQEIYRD
Excerpt: In this model a transactivation assay is used in which the expression vector mPPARαLBD/Gal4 DBD allows the synthesis by the transfected cell of a chimeric protein, in which the ligand binding domain (LBD) of PPARα is fused with the DNA binding domain (DBD) of the transcription factor GAL4 of yeast [Luckow B. et al., Nucleic Acids Res. 15, 5490 (1987)]. Simultaneously, a plasmid (pG5CAT) is transfected which contains 5 copies of the high-affinity binding site for GAL4 (also called UAS, upstream activating sequence), upstream of the viral promoter E1b fused with the CAT reporter gene [Moya-Camarena S. Y. et al., J. Lipid Res. 40 (8), 1426-33 (1999)]. This model eliminates interference by possible endogenous receptors.
This is due to the fact that the activation of E1b and the production of CAT will occur exclusively thanks to the interaction of GAL4 DBD with its own response element (UAS). Since the transcription factor GAL4 is not expressed in […] cells, transactivation of the reporter gene can take place only when, as a result of the interaction of a ligand with the LBD of PPARα, the chimeric protein PPARα/GAL4 recognises the UAS sequence on the plasmid pG5CAT. Together with the expression vector and the reporter vector the cells were also transfected with the plasmid pCH110 which provides the internal control for the efficiency of transfection and the normalisation of the results.
A monkey kidney fibroblast cell line (COS-7) was used [Elbrecht A. et al., J. Biol. Chem. 274 (12), 7913-22 (1999)]. The cells were co-transfected with the reporter vector, the expression plasmid coding for the fusion protein Gal4 DBD/PPARαLBD and the control vector pCH110. The cells were exposed to increasing concentrations of the study compounds and CAT activity was evaluated. Untreated cells were used as controls.
Monkey kidney fibroblasts (COS-7) were cultured according to the usual cell culture techniques, at 37° C. in a 5% v/v carbon dioxide atmosphere using as the growth medium DMEM (Dulbecco's modified Eagle's medium) modified with 3.7 g/l of sodium bicarbonate, 4 mM L-glutamine, 4.5 g/l of glucose, 1 mM sodium pyruvate and 10% v/v of foetal bovine serum, in the presence of streptomycin 100 μg/ml and penicillin 100 U/ml final.
The cells were co-transfected using the transfection reagent FuGENE6 (Roche), consisting of a defined mixture of lipids capable of complexing the DNA and of transporting it into the cells. Twenty-four hours prior to transfection the cells were plated at a density of 1.2×10^5 cells/well in 12-well plates and maintained at 37° C. in a 5% v/v CO2 atmosphere. […] Briefly, the transfection mixture containing 0.8 μg of the expression vector, 1.6 μg of the reporter vector, 0.8 μg of the control vector and 9 μl of the FuGENE6 reagent per well was added directly to the cells in the presence of culture medium devoid of serum. After 5 hours, the transfection medium was replaced by 1 ml of culture medium complete with serum and antibiotics in the presence or absence of the molecules to be tested at 3 different concentrations (2, 20 and 100 μM). Wy-14,643 (2 μM), a known ligand of PPARα, was used as the positive reference compound.
After 48 hours' incubation at 37° C. in a 5% v/v CO2 atmosphere, the cells were washed twice with 1 ml of phosphate buffer (PBS) and removed mechanically from the wells in TEN buffer (Tris[hydroxymethyl]aminomethane 10 mM pH 8, ethylenediamine-tetraacetic acid 1 mM pH 8, sodium chloride 0.1 M). After centrifuging for 3 minutes at 1000 rpm, the cells were resuspended in 65 μl of lysis buffer (Tris-HCl 0.25 M, pH 8) and then lysed thanks to three rapid freeze-thaw cycles. The insoluble cellular materials (debris) were removed by centrifuging at 15,000 rpm for 15 minutes at 4° C., and the supernatant was recovered and used for the CAT and β-galactosidase activity assays. […]

C57BL/KsJ db/db mouse [1] = settings: in vivo
Excerpt: (§1) Plasma levels of glucose, insulin, triglycerides, cholesterol, free fatty acids and urea were checked for a well-matched distribution of mice in the treatment groups.
(§2) At the start of treatment the body weights of the mice were checked and arrangements were made for monitoring water and feed consumption.
(§3) In the course of the experiment, serum glucose levels, oral glucose tolerance test (OGTT) findings, a number of lipid status parameters and weight gain were monitored.

C57BL/KsJ db/db mouse [2] = assay: Antidiabetic and serum-lipid-lowering activity in the db/db mouse (Experiments I and II); settings: Experiment I; for Glucose: blood
Excerpt: as §1, §2, §3

COC(=O)C(C)(C)Sc1cccc(OCCc2ccc(Cl)cc2Cl)c1 [Example 4, methyl 2-[3-(2-(2,4-dichlorophenyl)ethoxy)phenylthio]isobutyrate]
Activation of reporter gene CAT as a percentage of the reference compound (WY-14,643 2 μM = 100%) (mPPARαLBD/Gal4DBD; 2 μM): 113.1%
Activation of reporter gene CAT as a percentage of the reference compound (WY-14,643 2 μM = 100%) (mPPARαLBD/Gal4DBD; 20 μM): 284.9%
Activation of reporter gene CAT as a percentage of the reference compound (WY-14,643 2 μM = 100%) (mPPARαLBD/Gal4DBD; 100 μM): 421%

COC(=O)C(C)(C)Sc1ccc(OCCc2ccc3ccccc3c2)cc1 [Example 11, methyl 2-[4-[2-(2-naphthyl)ethoxy]phenylthio]isobutyrate]
melting point: 56 to 57 °C

CN(CCOc1ccc(CC2SC(=O)NC2=O)cc1)c1ccccn1 (centres unmarked) [Rosiglitazone, rosiglitazone, reference compound]
Variation % (final b.w.) vs control (C57BL/KsJ db/db mouse [1]): +49%
Variation % (initial b.w.) vs control (C57BL/KsJ db/db mouse [1]): +3%
Variation % (glucose) vs control (C57BL/KsJ db/db mouse [2]; after 12 days' treatment, feeding state, approx. 15 hours after last treatment): −25%
Variation % (glucose) vs control (C57BL/KsJ db/db mouse [2]; after 18 days' treatment, fasting 18 hours, 6 hours after last treatment): −35%
Variation % (HDL-cholesterol) vs control (C57BL/KsJ db/db mouse [2]; after 25 days' treatment): −20%
Variation % (triglycerides) vs control (C57BL/KsJ db/db mouse [2]; after 25 days' treatment): −54%
Glucose (C57BL/KsJ db/db mouse [2]; after 18 days' treatment, fasting 18 hours, 6 hours after last treatment, mean ± S.E.): 225 ± 27▪ mg/dl
Glucose (C57BL/KsJ db/db mouse [2]; db/db mice, oral twice daily, after 12 days' treatment, feeding state, approx. 15 hours after last treatment, mean ± S.E.): 365 ± 64 mg/dL
Final b.w. (C57BL/KsJ db/db mouse [2]; final body weight after 25 days' treatment, postabsorption condition, mean ± S.E.): 42.1 ± 2.5Δ g
Initial b.w. (C57BL/KsJ db/db mouse [2]; initial body weight, postabsorption condition, mean ± S.E.): 32.6 ± 1.4 g
